Earlier results as cited in patent EP4729055A1, “TREATMENT OF DISORDERS USING SPHINGOSINE-1-PHOSPHATE RECEPTOR MODULATORS” (The Provost, Fellows, Foundation Scholars, & the other …, priority 2024, dated 2026).

log P: 5.5
SMILES: CCCCCCCCc1ccc(CCC(N)(CO)CO)cc1 [fingolimod, 2-Amino-2-[2-(4-octylphenyl)ethyl]propane-1,3-diol]
